From patent publication US7556938B1, “Nucleic acids encoding potassium channel interactors” (Millennium Pharmaceuticals, Inc., priority 1998, dated 2009)

Assays:
[1] = molecular target: T1, Kv4.3/KChIP1 (Rattus norvegicus, UniProt Q62897); test: Fatty acid modulation of Kv4.3/KChIP1 current in Xenopus oocytes; type: cell-based; conditions: for block of Kv4.3 peak amplitude: Kv4.3/KChIP1, 10 μM fatty acid, vs no-fatty acid control; for effect on Kv4.3 inactivation time constant: Kv4.3 co-expressed with KChIP1, 10 μM fatty acid
T1 sequence (Q62897 1-655): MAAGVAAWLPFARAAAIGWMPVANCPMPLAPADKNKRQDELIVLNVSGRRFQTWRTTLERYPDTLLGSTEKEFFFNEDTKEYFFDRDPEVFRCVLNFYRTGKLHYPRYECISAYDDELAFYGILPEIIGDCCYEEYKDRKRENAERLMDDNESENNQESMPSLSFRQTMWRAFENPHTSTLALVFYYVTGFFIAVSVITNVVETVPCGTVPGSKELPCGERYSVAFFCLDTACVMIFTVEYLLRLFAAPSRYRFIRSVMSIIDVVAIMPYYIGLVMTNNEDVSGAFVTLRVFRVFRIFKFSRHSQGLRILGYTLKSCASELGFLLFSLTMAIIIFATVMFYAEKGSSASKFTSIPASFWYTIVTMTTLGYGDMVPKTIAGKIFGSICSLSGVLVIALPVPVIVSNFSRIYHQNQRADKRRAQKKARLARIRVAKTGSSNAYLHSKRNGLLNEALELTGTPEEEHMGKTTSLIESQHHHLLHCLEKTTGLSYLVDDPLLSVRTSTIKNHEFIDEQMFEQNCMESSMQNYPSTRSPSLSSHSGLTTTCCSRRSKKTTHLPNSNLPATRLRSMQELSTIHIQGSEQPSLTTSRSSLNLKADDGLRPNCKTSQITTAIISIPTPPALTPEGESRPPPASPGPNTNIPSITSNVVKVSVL
T1 sequence (Q8R426 1-216 isoform Q8R426-2 partner): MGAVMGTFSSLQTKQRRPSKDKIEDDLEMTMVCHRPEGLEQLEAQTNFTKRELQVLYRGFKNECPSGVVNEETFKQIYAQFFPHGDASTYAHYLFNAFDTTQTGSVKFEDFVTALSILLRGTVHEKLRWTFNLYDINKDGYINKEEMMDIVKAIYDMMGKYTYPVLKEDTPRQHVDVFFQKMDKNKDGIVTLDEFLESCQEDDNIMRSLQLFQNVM
Protocol: (§1) Frogs underwent no more than two surgeries and surgeries were performed by well established techniques. Frogs were anesthetized with ice. Total cRNA (1-10 ng) was injected into stage IV Xenopus oocytes that were harvested the previous day. The Xenopus oocytes were incubated in ND96 containing (in mM) 96 NaCl, 2 KCl, 1.8 CaCl2, 1 MgCl2, 5 HEPES, pH 7.6, plus (Gentamycin 50 μg/ml) at 18° C. Xenopus oocytes were studied 3-7 days after injection. The two-electrode voltage-clamp recordings were performed in ND96 solution using a TURBO TEC 03 Clamp Amplifier (ALA Scientific Instruments, Westbury, N.Y.). Both electrodes were filled with 3 M KCl and had electrode resistances ranging from 0.2-1 MOhm. The current signals were filtered at 1000 Hz before transferred on a PC (Gateway, Calif.) using the PULSE software (HEKA, Germany). In this Example, the hypothesis that […] were the missing auxiliary subunits that accounted for the above kinetic discrepancy was investigated by expressing Kv4 alone or together with […] in both CHO cells and Xenopus oocytes, and measuring their inactivation time constants (using art known techniques as described in, for example, An et al. (2000) Nature 403:553-6; Keros, S. and […]. Neuroscience 17: 3476-87; and Villarroel, A. and […]. Neuroscience 16:2522-32). The effects of different concentrations of arachidonic acid on Kv4/KChIP current was studied in Xenopus oocytes. Because the physiological concentrations of arachidonic acid are often under 10 μM (Needleman, et al., 1986 Annu Rev Biochem 55:69-102; Anderson and Welsh, 1990, Proc Natl Acad Sci USA 87:7334-8; Meves, 1994, Prog Neurobiol 43:175-86), arachidonic acid was tested in the 1-10 μM range. […] Further, the slope of amplitude reduction as a function of increasing concentrations was very similar with or without the presence of […]. […] Villarroel and Schwarz, (1996) J.

[2] = test system: Kv4.3; test: Fatty acid modulation of Kv4.3 current (Kv4.3 alone) in Xenopus oocytes; type: cell-based, rat; conditions: Kv4.3 alone, 10 μM fatty acid, vs no-fatty acid control
Protocol: as §1

block of Kv4.3 peak amplitude [1]	effect on Kv4.3 inactivation time constant [1]	SMILES	block of Kv4.3 peak amplitude [2]
inhibited significantly	reduced Kv4.3 inactivation time constant	CCCCCCCCC#CCC#CCC#CCCCC(=O)O [ETI, 5,8,11-eicosatriynoic acid]	inhibited significantly
inhibited significantly	reduced Kv4.3 inactivation time constant	CCCCCC#CCC#CCC#CCC#CCCCC(=O)O [ETYA, 5,8,11,14-eicosatetraynoic acid]	inhibited significantly
inhibited significantly	reduced Kv4.3 inactivation time constant	CCCCC/C=C\C/C=C\C/C=C\CCCCC(=O)O [γ-linolenic acid]	inhibited significantly

SMILES	block of Kv4.3 peak amplitude [1]	effect on Kv4.3 inactivation time constant [1]	block of Kv4.3 peak amplitude [2]
CCCCC/C=C/C/C=C/CCCCCCCC(=O)O [linolelaidic acid]	small, statistically significant block	did not affect the Kv4.3 inactivation time constant	All values except that of linolelaidic acid/Kv4.3 alone were statistically significant
